Where a name gives a salt, the structure may show the parent alone.

For data set [1], the system named is Collagen-induzierte Thrombozytenaggregation. Put plainly: Ex vivo inhibition of collagen-induced platelet aggregation after oral administration. The class given is in vivo, Rhesusaffen. The following applies: 1 mg/kg, Rhesus monkeys, collagen 2 µg/ml. From the text: Die Hemmung der Thrombozytenaggregation nach oraler Gabe der Prüfsubstanz wird ex vivo an Rhesusaffen ermittelt.
Direkt vor der oralen Verabreichung der in Natrosol suspendierten Prüfsubstanz wird den Tieren eine Blutprobe aus der Kubitalvene als Referenzwert entnommen. Zu definierten Zeiten nach der Substanzgabe werden erneut Blutproben gewonnen und wie folgt untersucht.
Das mit 3,14% Natriumcitrat im Volumenverhältnis 1:10 versetzte Vollblut wird mit 200 g für 15 Minuten zentrifugiert. Der Überstand an plättchenreichem Plasma wird vorsichtig abgehoben. Aus dem erythrozytenreichen Sediment wird durch Zentrifugation mit 4000 g für 10 Minuten das plättchenarme Plasma als Überstand gewonnen.
Die mit Collagen (Hormonchemie, München; 2 µg/ml Endkonzentration im plättchenreichen Plasma) ausgelöste Thrombozytenaggregation in diesen ex vivo Proben wird nach der Methode von Born und Cross (J. Physiol. 170, 397 (1964)) photometrisch gemessen. Die nach Collagenstimulation gemessene größte Lichtdurchlässigkeit des plättchenreichen Plasmas wird mit dem Referenzwert verglichen, um die Hemmung der Aggregation zu den verschiedenen Zeitpunkten der Blutentnahme nach Substanzgabe relativ zum Referenzwert zu bestimmen.

The test system of another data set is Humanthrombozyten. Put plainly: Competitive binding of ³H-BIBU 52 / test substance to human platelets. Conditions: platelet suspension in plasma, ³H-BIBU 52 5 nM, 20 min at room temperature; read-out: Kompetitive Bindung ³H-BIBU 52/Textsubstanz an Humanthrombozyten IC₅₀ (converted). From the text: 1. Kompetitive Bindung ³H-BIBU 52/Testsubstanz an Humanthrombozyten:
Eine Suspension von Humanthrombozyten in Plasma wird mit ³H-BIBU 52 [= (3S,5S)-5-[(4'-Amidino-4-biphenylyl)oxymethyl]-3-[(carboxyl)methyl]-2-pyrrolidinon[3-³H-4-biphenylyl]), das den literaturbekannten Liganden ¹²⁵ I-Fibrinogen ersetzt, (siehe deutsche Patentanmeldung P 42 14 245.8 der gleichen Anmelderin vom 30. 04. 1992, internes Zeichen: Case 5/1093-FL) und verschiedenen Konzentrationen der zu testenden Substanz inkubiert. Der freie und gebundene Ligand wird durch Zentrifugation getrennt und durch Szintillationszählung quantitativ bestimmt. Aus den Meßwerten wird die Hemmung der ³H-BIBU 52-Bindung durch die Testsubstanz bestimmt.
Hierzu wird aus einer Antikubitalvene Spenderblut entnommen und mit Trinatriumzitrat antikoaguliert (Endkonzentration 13 mM). Das Blut wird 10 Minuten bei 170 x g zentrifugiert und das überstehende plättchenreiche Plasma (PRP) abgenommen. Das Restblut wird zur Gewinnung von Plasma nocheinmal scharf abzentrifugiert. Das PRP wird mit autologem Plasma 1:10 verdünnt. 750 µl werden mit 50 µl physiologischer Kochsalzlösung, 100 µl Testsubstanzlösung, 50 µl ¹⁴C-Sucrose (3.700 Bq) und 50 µl ³H-BIBU 52 (Endkonzentration: 5 nM) bei Raumtemperatur 20 Minuten inkubiert. Zur Messung der unspezifischen Bindung wird anstelle der Testsubstanz 5 µl BIBU 52 (Endkonzentration: 30 µM) eingesetzt. Die Proben werden 20 Sekunden bei 10000 x g zentrifugiert und der Überstand abgezogen. 100 µl hiervon werden zur Bestimmung des freien Liganden gemessen. Das Pellet wird in 500 µl 0,2N NaOH gelöst, 450 µl werden mit 2 ml Szintillator und 25 µl 5N HCl versetzt und gemessen. Das im Pellet noch verbliebene Restplasma wird aus dem ¹⁴C-Gehalt bestimmt, der gebundene Ligand aus der ³H-Messung. Nach Abzug der unspezifischen Bindung wird die Pelletaktivität gegen die Konzentration der Testsubstanz aufgetragen und die Konzentration für eine 50%ige Hemmung der Bindung ermittelt.

The next data set deals with Thrombozytenaggregation. Put plainly: Collagen-induced platelet aggregation in platelet-rich plasma (Born and Cross). The class given is cell-based, Versuchspersonen. The following applies: 10 min preincubation at 37°C, half-maximal inhibition of change in optical density, read-out: Hemmung der Plättchenaggregation EC₅₀ (converted). From the text:
2. Antithrombotische Wirkung Methodik Die Thrombozytenaggregation wird nach der Methode von Born und Cross (J. Physiol. 170, 397 (1964)) in plättchenreichem Plasma gesunder Versuchspersonen gemessen. Zur Gerinnungshemmung wird das Blut mit Natriumcitrat 3,14 % im Volumenverhältnis 1:10 versetzt. Collagen-induzierte Aggregation Der Verlauf der Abnahme der optischen Dichte der Plättchen-Suspension wird nach Zugabe der aggregationsauslösenden Substanz photometrisch gemessen und registriert. Aus dem Neigungswinkel der Dichtekurve wird auf die Aggregationsgeschwindigkeit geschlossen. Der Punkt der Kurve, bei dem die größte Lichtdurchlässigkeit vorliegt, dient zur Berechnung der "optical density". Die Collagen-Konzentration wird möglichst gering gewählt, aber doch so, daß sich eine irreversibel verlaufende Reaktionskurve ergibt. Verwendet wird das handelsübliche Collagen der Firma Hormonchemie, München. Vor der Collagen-Zugabe wird das Plasma jeweils 10 Minuten mit der Substanz bei 37°C inkubiert. Aus den Konzentrations-Wirkungskurven wird die EC₅₀ berechnet, die die Konzentration beschreibt, bei der die Änderung der "optical density" halbmaximal gehemmt ist.

A short description of data set [2]: Tolerability after intravenous administration to mice. The class given is in vivo, Mäusen. The following applies: 30 mg/kg, 3 mice each.

Consider `CCCCS(=O)(=O)NC(Cc1ccc(NC(=O)c2cccc(C3CCNCC3)c2)cc1)C(=O)OC.Cl` (stereo not shown) [5(2), 4-[3-[[4-[2-(n-Butansulfonylamino)-2-(methoxycarbonyl)-ethyl]-phenyl]-aminocarbonyl]-phenyl]-piperidin-hydrochlorid], for which the “Dauer der Hemmung der Collagen-induzierten Thrombozytenaggregation ex vivo” value in data set [1] is over 2 Stunden.
In the case of `COC(=O)CC[C@H]1CC[C@H](NC(=O)c2ccc(C3CCNCC3)cc2)CC1.Cl` [Beispiel 2, 4-[4-[[trans-4-[2-(Methoxycarbonyl)-ethyl]-cyclohexyl]-aminocarbonyl]-phenyl]-piperidin-hydrochlorid], the IC50 in the data set with Humanthrombozyten was 1100 nM. The EC50 in the data set on Thrombozytenaggregation is 840 nM. For the same compound, in data set [1], the “Dauer der Hemmung der Collagen-induzierten Thrombozytenaggregation ex vivo” value is over 2 Stunden. Moreover, the “gestorbene Tiere” value in data set [2] is reported as “keine Tieren gestorben”.
As to `COC(=O)CCc1ccc(NC(=O)c2ccc(C3CCNCC3)cc2)cc1` [Beispiel 2.1, 4-[4-[[4-[2-(Methoxycarbonyl)-ethyl]-phenyl]-aminocarbonyl]-phenyl]-piperidin-hydrochlorid], the IC50 with Humanthrombozyten is over 100000 nM. Moreover, the EC50 with Thrombozytenaggregation was 3300 nM.
The like results for `CCCCS(=O)(=O)NC(Cc1ccc(NC(=O)c2ccc(C3CCNCC3)cc2)cc1)C(=O)OC` (stereo not shown) [Beispiel 2.2, 4-[4-[[4-[2-(n-Butansulfonylamino)-2-(methoxycarbonyl)-ethyl]-phenyl]-aminocarbonyl]-phenyl]-piperidin-hydrochlorid] were, in that order, 4500 nM and 3300 nM.
`Cl.O=C(O)CC[C@H]1CC[C@H](NC(=O)c2ccc(C3CCNCC3)cc2)CC1` [Beispiel 3, 4-[4-[[trans-4-(2-Carboxy-ethyl)-cyclohexyl]-aminocarbonyl]-phenyl]-piperidin-hydrochlorid]: the IC50 in the data set with Humanthrombozyten is 190 nM. The EC50 in the data set with Thrombozytenaggregation is 260 nM. For the same compound, the “gestorbene Tiere” value in data set [2] is listed as “keine Tieren gestorben”.
Turning to `O=C(O)CCc1ccc(NC(=O)c2ccc(C3CCNCC3)cc2)cc1` [Beispiel 3.1, 4-[4-[[4-(2-Carboxy-ethyl)-phenyl]-aminocarbonyl]-phenyl]-piperidin-hydrochlorid], the IC50 with Humanthrombozyten was 1400 nM. Besides, in the data set with Thrombozytenaggregation, the EC50 was 2400 nM.
`CCCCS(=O)(=O)NC(Cc1ccc(NC(=O)c2ccc(C3CCNCC3)cc2)cc1)C(=O)O` (stereo not shown) [Beispiel 3.3, 4-[4-[[4-[2-(n-Butansulfonyl-amino)-2-carboxy-ethyl]-phenyl]-aminocarbonyl]-phenyl]-piperidin-hydrochlorid]: the IC50 in the data set with Humanthrombozyten was 17 nM. Further, the EC50 in the data set on Thrombozytenaggregation was 260 nM.
The matching figures for `O=C(O)CC[C@H]1CC[C@H](NC(=O)c2cccc(C3CCNCC3)c2)CC1` [Beispiel 3.4, 4-[3-[[trans-4-(2-Carboxy-ethyl)-cyclohexyl]-aminocarbonyl]-phenyl]-piperidin-hydrochlorid]: 2000 nM and 5800 nM.
`CCCCS(=O)(=O)NC(Cc1ccc(NC(=O)c2cccc(C3CCNCC3)c2)cc1)C(=O)O` (stereo not shown) [Beispiel 3.6, 4-[3-[[4-[2-(n-Butansulfonylamino)-2-carboxy-ethyl]-phenyl]-aminocarbonyl]-phenyl]-piperidin-hydrochlorid]: in the data set with Humanthrombozyten, the IC50 is 14 nM. Besides, in the data set with Thrombozytenaggregation, the EC50 was 120 nM.
With `COC(=O)CC[C@H]1CC[C@H](NC(=O)c2cccc(C3CCNCC3)c2)CC1` [Beispiel 5, 4-[3-[[trans-4-[2-(Methoxycarbonyl)-ethyl]-cyclohexyl]-aminocarbonyl]-phenyl]-piperidin-hydrochlorid], the IC50 in the data set with Humanthrombozyten is 2900 nM. The EC50 in the data set on Thrombozytenaggregation is 5600 nM.

(Values after EP0604800A1, “4- 4- 4-(carboxyalkyl)-phenyl amino carbonyl -phenyl -piperedines as aggregation inhibitors” (Dr. Karl Thomae GmbH, priority 1992, dated 1994).)
